From paper PMC9256654, “Mechanistic basis for maintenance of CHG DNA methylation in plants” (Nature Communications, 2022) come the findings set out here.

This assay has as its target T1, CMT3 (Arabidopsis thaliana, UniProt Q94F88).
T1 construct: residues 42-839; N-terminal His6-SUMO tag removed by ULP1; E. coli BL21(DE3) RIL
T1 sequence (Q94F88 42-839): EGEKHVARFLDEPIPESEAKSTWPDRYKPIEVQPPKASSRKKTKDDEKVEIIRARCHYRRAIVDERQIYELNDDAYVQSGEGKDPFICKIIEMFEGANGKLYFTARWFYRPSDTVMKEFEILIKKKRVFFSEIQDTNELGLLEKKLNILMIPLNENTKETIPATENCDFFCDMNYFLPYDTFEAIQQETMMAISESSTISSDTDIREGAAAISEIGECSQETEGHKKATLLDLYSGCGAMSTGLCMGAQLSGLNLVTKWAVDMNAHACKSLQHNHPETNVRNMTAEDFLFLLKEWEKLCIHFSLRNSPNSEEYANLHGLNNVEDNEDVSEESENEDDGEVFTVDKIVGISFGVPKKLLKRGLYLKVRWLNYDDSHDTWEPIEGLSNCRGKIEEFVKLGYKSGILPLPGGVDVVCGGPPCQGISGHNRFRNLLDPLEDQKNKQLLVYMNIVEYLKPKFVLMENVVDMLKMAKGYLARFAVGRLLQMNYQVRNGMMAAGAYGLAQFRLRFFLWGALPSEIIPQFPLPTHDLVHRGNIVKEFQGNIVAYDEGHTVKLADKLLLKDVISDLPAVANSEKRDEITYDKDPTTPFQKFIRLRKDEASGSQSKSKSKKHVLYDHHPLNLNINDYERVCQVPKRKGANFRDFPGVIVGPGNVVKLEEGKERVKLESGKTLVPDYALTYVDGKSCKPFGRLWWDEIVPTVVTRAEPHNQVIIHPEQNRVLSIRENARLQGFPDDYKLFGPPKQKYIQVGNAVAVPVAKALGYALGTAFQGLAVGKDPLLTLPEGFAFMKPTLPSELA
Description: radiometric DNA methylation assay (3H-methyl transfer, nylon membrane). Type of assay: biochemical. To be noted: labelled compound; 0.56 uM [3H]SAM plus 1.96 uM SAM; 4.0 uM DNA; 4.0 uM histone peptide; no added NaCl; pH 8.0, 37 C, 1 h.

As for `C[S+](CC[C@H](N)C(=O)O)C[C@H]1O[C@@H](n2cnc3c(N)ncnc32)[C@H](O)[C@@H]1O` (stereo partly drawn) [SAM, S-adenosyl-L-methionine], the “radiometric DNA methylation assay (3H-methyl transfer, nylon membrane)” value was “All the rest of the reaction conditions for CMT3 were the same as those for ZMET2”.
